Measured values from PubChem BioAssay (NCI).
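Growth conditions: 96-well plates. Treatment: test compound, 48 hours, 5 concentrations. Analysis: linear interpolation between bracketing concentrations; unreached endpoints set to highest concentration. The concentration for 50% growth inhibition is given as GI50. TGI marks complete inhibition of growth.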

Legend:
Assay in all cases: NCI anticancer screen, dose series, 48 h
[1] = system: CCRF-CEM leukemia
[2] = system: M14 melanoma
[3] = system: 786-0 renal
[4] = system: IGROV1 ovarian
[5] = system: SNB-75 CNS
[6] = system: NCI-H226 lung
[7] = system: HCT-15 colon
[8] = system: SK-MEL-28 melanoma
[9] = system: OVCAR-3 ovarian
[10] = system: OVCAR-8 ovarian
[11] = system: EKVX NSCLC
[12] = system: PC-3 prostate
[13] = system: HCT-116 colon
[14] = system: SF-539 CNS
[15] = system: HT29 colon
[16] = system: SK-MEL-5 melanoma
[17] = system: BT-549 breast
[18] = system: UO-31 renal
[19] = system: ACHN renal
[20] = system: NCI/ADR-RES ovarian
[21] = system: MDA-MB-435
[22] = system: A498 renal
[23] = system: HOP-62 NSCLC
[24] = system: KM12 colon
[25] = system: UACC-62 melanoma
[26] = system: SR leukemia
[27] = system: NCI-H522 lung
[28] = system: T-47D breast
[29] = system: HS 578T breast
[30] = system: DU-145 prostate
[31] = system: UACC-257 melanoma
[32] = system: OVCAR-4 ovarian
[33] = system: U251 CNS
[34] = system: HCC-2998 colon
[35] = system: SK-OV-3 ovarian
[36] = system: OVCAR-5 ovarian
[37] = system: RPMI-8226 leukemia
[38] = system: CAKI-1 renal
[39] = system: HL-60(TB) leukemia
[40] = system: MOLT-4 leukemia
[41] = system: MDA-MB-231 breast
[42] = system: K-562 leukemia
[43] = system: NCI-H460 lung
[44] = system: MALME-3M melanoma
[45] = system: HOP-92 NSCLC
[46] = system: SF-268 CNS
[47] = system: SF-295 CNS
[48] = system: MCF7 breast
[49] = system: SN12C renal
[50] = system: RXF 393 renal
[51] = system: LOX IMVI melanoma
[52] = system: NCI-H23 lung
[53] = system: SW-620 colon
[54] = system: SK-MEL-2 melanoma
[55] = system: SNB-19 CNS
[56] = system: TK-10 renal
[57] = system: COLO 205 colon
[58] = system: A549 NSCLC

Structure (SMILES): NC(=O)c1ccc(Oc2nccc(-c3c(-c4ccc(F)cc4)ncn3C3CCNCC3)n2)cc1
- GI50 [1]: > 25 µM
- TGI [1]: > 25 µM
- GI50 [2]: > 25 µM
- TGI [2]: > 25 µM
- GI50 [3]: > 25 µM
- TGI [3]: > 25 µM
- GI50 [4]: > 25 µM
- TGI [4]: > 25 µM
- GI50 [5]: > 25 µM
- TGI [5]: > 25 µM
- GI50 [6]: > 25 µM
- TGI [6]: > 25 µM
- GI50 [7]: > 25 µM
- TGI [7]: > 25 µM
- GI50 [8]: > 25 µM
- TGI [8]: > 25 µM
- GI50 [9]: > 25 µM
- TGI [9]: > 25 µM
- GI50 [10]: > 25 µM
- TGI [10]: > 25 µM
- GI50 [11]: > 25 µM
- TGI [11]: > 25 µM
- GI50 [12]: > 25 µM
- TGI [12]: > 25 µM
- GI50 [13]: > 25 µM
- TGI [13]: > 25 µM
- GI50 [14]: > 25 µM
- TGI [14]: > 25 µM
- GI50 [15]: > 25 µM
- TGI [15]: > 25 µM
- GI50 [16]: > 25 µM
- TGI [16]: > 25 µM
- GI50 [17]: > 25 µM
- TGI [17]: > 25 µM
- GI50 [18]: > 25 µM
- TGI [18]: > 25 µM
- GI50 [19]: > 25 µM
- TGI [19]: > 25 µM
- GI50 [20]: > 25 µM
- TGI [20]: > 25 µM
- GI50 [21]: > 25 µM
- TGI [21]: > 25 µM
- GI50 [22]: > 18.2 µM
- TGI [22]: > 25 µM
- GI50 [23]: > 25 µM
- TGI [23]: > 25 µM
- GI50 [24]: > 25 µM
- TGI [24]: > 25 µM
- GI50 [25]: > 25 µM
- TGI [25]: > 25 µM
- GI50 [26]: > 25 µM
- TGI [26]: > 25 µM
- GI50 [27]: > 25 µM
- TGI [27]: > 25 µM
- GI50 [28]: > 25 µM
- TGI [28]: > 25 µM
- GI50 [29]: > 9.72 µM
- TGI [29]: > 25 µM
- GI50 [30]: > 25 µM
- TGI [30]: > 25 µM
- GI50 [31]: > 25 µM
- TGI [31]: > 25 µM
- GI50 [32]: > 25 µM
- TGI [32]: > 25 µM
- GI50 [33]: > 25 µM
- TGI [33]: > 25 µM
- GI50 [34]: > 25 µM
- TGI [34]: > 25 µM
- GI50 [35]: > 25 µM
- TGI [35]: > 25 µM
- GI50 [36]: > 25 µM
- TGI [36]: > 25 µM
- GI50 [37]: > 25 µM
- TGI [37]: > 25 µM
- GI50 [38]: > 25 µM
- TGI [38]: > 25 µM
- GI50 [39]: > 25 µM
- TGI [39]: > 25 µM
- GI50 [40]: > 25 µM
- TGI [40]: > 25 µM
- GI50 [41]: > 25 µM
- TGI [41]: > 25 µM
- GI50 [42]: > 25 µM
- TGI [42]: > 25 µM
- GI50 [43]: > 25 µM
- TGI [43]: > 25 µM
- GI50 [44]: > 25 µM
- TGI [44]: > 25 µM
- GI50 [45]: > 25 µM
- TGI [45]: > 25 µM
- GI50 [46]: > 25 µM
- TGI [46]: > 25 µM
- GI50 [47]: > 25 µM
- TGI [47]: > 25 µM
- GI50 [48]: > 25 µM
- TGI [48]: > 25 µM
- GI50 [49]: > 25 µM
- TGI [49]: > 25 µM
- GI50 [50]: > 25 µM
- TGI [50]: > 25 µM
- GI50 [51]: > 25 µM
- TGI [51]: > 25 µM
- GI50 [52]: > 25 µM
- TGI [52]: > 25 µM
- GI50 [53]: > 25 µM
- TGI [53]: > 25 µM
- GI50 [54]: > 25 µM
- TGI [54]: > 25 µM
- GI50 [55]: > 25 µM
- TGI [55]: > 25 µM
- GI50 [56]: > 25 µM
- TGI [56]: > 25 µM
- GI50 [57]: > 25 µM
- TGI [57]: > 25 µM
- GI50 [58]: > 25 µM
- TGI [58]: > 25 µM

Structure (SMILES): O=C(/C=C/C=C/c1ccccc1)c1ccco1
- GI50 [1]: 10.2 µM
- TGI [1]: 33.3 µM
- GI50 [2]: 17.3 µM
- TGI [2]: 34.8 µM
- GI50 [3]: 15.2 µM
- TGI [3]: 32.5 µM
- GI50 [4]: 18.3 µM
- TGI [4]: 37.6 µM
- GI50 [5]: 18 µM
- TGI [5]: 72.5 µM
- GI50 [6]: 20.7 µM
- TGI [6]: 50.2 µM
- GI50 [7]: 11.6 µM
- TGI [7]: 26.3 µM
- GI50 [8]: 17 µM
- TGI [8]: 31.6 µM
- GI50 [9]: 14.2 µM
- TGI [9]: 27.6 µM
- GI50 [10]: 27.1 µM
- TGI [10]: > 100 µM
- GI50 [11]: 15.5 µM
- TGI [11]: 62.1 µM
- GI50 [12]: 16.4 µM
- TGI [12]: 53 µM
- GI50 [13]: 12.2 µM
- TGI [13]: 25.1 µM
- GI50 [14]: 17.1 µM
- TGI [14]: 31.5 µM
- GI50 [15]: 16.7 µM
- TGI [15]: 33.5 µM
- GI50 [16]: 15.9 µM
- TGI [16]: 29.4 µM
- GI50 [17]: 17.2 µM
- TGI [17]: 40.7 µM
- GI50 [18]: 10.6 µM
- TGI [18]: 22.6 µM
- GI50 [19]: 16.9 µM
- TGI [19]: 33.5 µM
- GI50 [20]: 16.4 µM
- TGI [20]: 36.7 µM
- GI50 [21]: 13.1 µM
- TGI [21]: 29.2 µM
- GI50 [22]: 14.3 µM
- TGI [22]: 39.1 µM
- GI50 [23]: 22.2 µM
- TGI [23]: 45.8 µM
- GI50 [24]: 11 µM
- TGI [24]: 24.1 µM
- GI50 [25]: 14.6 µM
- TGI [25]: 28.4 µM
- GI50 [26]: 1.86 µM
- TGI [26]: 11.2 µM
- GI50 [27]: 13.2 µM
- TGI [27]: 27 µM
- GI50 [28]: 7.5 µM
- TGI [28]: 37.5 µM
- GI50 [29]: 17.5 µM
- TGI [29]: 52.9 µM
- GI50 [30]: 12.5 µM
- TGI [30]: 25.4 µM
- GI50 [31]: 21.8 µM
- TGI [31]: 60.7 µM
- GI50 [32]: 23.1 µM
- TGI [32]: > 100 µM
- GI50 [33]: 12.4 µM
- TGI [33]: 24.9 µM
- GI50 [34]: 15 µM
- TGI [34]: 28.3 µM
- GI50 [35]: 28.8 µM
- TGI [35]: 84.6 µM
- GI50 [36]: 18.4 µM
- TGI [36]: 33.3 µM
- GI50 [37]: 1.81 µM
- TGI [37]: 10.7 µM
- GI50 [38]: 16 µM
- TGI [38]: 32.8 µM
- GI50 [39]: 10 µM
- TGI [39]: 97.6 µM
- GI50 [40]: 1.92 µM
- TGI [40]: 21.5 µM
- GI50 [41]: 22.7 µM
- TGI [41]: 57.1 µM
- GI50 [42]: 10.1 µM
- TGI [42]: 29.6 µM
- GI50 [43]: 21 µM
- TGI [43]: 47.5 µM
- GI50 [44]: 12.6 µM
- TGI [44]: 28.6 µM
- GI50 [45]: 7.96 µM
- TGI [45]: 43.7 µM
- GI50 [46]: 18.2 µM
- TGI [46]: 41.1 µM
- GI50 [47]: 13.2 µM
- TGI [47]: 34.6 µM
- GI50 [48]: 1.24 µM
- TGI [48]: 21.6 µM
- GI50 [49]: 16 µM
- TGI [49]: 34.9 µM
- GI50 [50]: 9.78 µM
- TGI [50]: 24.6 µM
- GI50 [51]: 13.7 µM
- TGI [51]: 27.9 µM
- GI50 [52]: 15 µM
- TGI [52]: 30.4 µM
- GI50 [53]: 13.4 µM
- TGI [53]: 28.6 µM
- GI50 [54]: 18.8 µM
- TGI [54]: 37.3 µM
- GI50 [55]: 15.2 µM
- TGI [55]: 31.9 µM
- GI50 [56]: 16.9 µM
- TGI [56]: 40.1 µM
- GI50 [57]: 17.9 µM
- TGI [57]: 31.7 µM
- GI50 [58]: 23.8 µM
- TGI [58]: 77.4 µM
